These results are taken from the NIST ThermoML archive (doi:10.1021/acs.jced.5b00737).

The term vapor or sublimation pressure denotes the pressure of vapour in equilibrium with the condensed phase.

For this series the following is noted: 298.15 K; Liquid; Gas chromatography.

Structures are written as SMILES. Numbers after ± are expanded uncertainties.

On to `c1ccc(C2(N3CCCCC3)CCCCC2)cc1` [1-(1-phenylcyclohexyl)piperidine], for which the “vapor or sublimation pressure” value is listed as 3e-05 ± 1.2e-05 kPa.

Turning to `CC(Cc1ccc(C(C)(C)C)cc1)CN1CCCCC1` (configuration not stated) [1-(3-(4-(tert-butyl)phenyl)-2-methylpropyl)piperidine], the “vapor or sublimation pressure” value was determined as 1.6e-05 ± 8e-06 kPa.
